According to PMC6271933, “Evaluation of the Toxicity of 5-Aryl-2-Aminoimidazole-Based Biofilm Inhibitors against Eukaryotic Cell Lines, Bone Cells and the Nematode Caenorhabditis elegans” (Molecules, 2014):
Several values for one entry are separate records, joined by “and”; a condition that tells them apart may be missing. Equal entries are not always repeated. Entries after “also recorded” stand apart in the source; their conditions may differ.

Experiments:
HaCaT keratinocyte cells = tested on: HaCaT keratinocyte cells; parameters: method as in PMID 22292413; conditions: cited from earlier work
Caenorhabditis elegans = tested on: Caenorhabditis elegans; parameters: method as in PMID 22292413; conditions: cited from earlier work
[1] = tested on: human bone marrow-derived mesenchymal stem cells (MSC); assay: Cytotoxicity against bone cells, trypan blue staining; format: cell-based; conditions: for effect on proliferation and viability: after 48h and after 6 days of exposure
Method: (§1) The cytotoxicity of the compounds was measured on cell cultures of two cell types represented in bone tissue, namely human osteoblasts (OB) and human bone marrow-derived mesenchymal stem cells (MSC). These tests were conducted according to ISO 10993-5 cytotoxicity standard. The cells were seeded in a 96-well plate at a density of 5000 cells/cm^2 in cell culture media (Advanced DMEM, 10% FBS, 1× GlutaMAX, 0.05 mg/mL gentamicin) and allowed to attach overnight. […]
(§2) Trypan blue staining: the medium was removed from the wells, and 1/3 trypan blue in DMEM medium was added to the cells, incubated for 3 min, after which trypan blue was removed and DMEM medium was added to the wells. In each of four wells, two microscopy fields were counted for viable (transparent) and dead (blue) cells.

human osteoblasts (OB) [2] = assay: as above; format: cell-based; conditions: for effect on proliferation and viability: after 48h and after 6 days of exposure
Method: as §1, §2

P. aeruginosa biofilm = conditions: concentration preventing biofilm formation (at 25 °C) by 50%; as previously reported ref 13, 14, 15, 16; read-out: BIC50 P. aeruginosa; cited from earlier work
S. Typhimurium biofilm = conditions: concentration preventing biofilm formation (at 25 °C) by 50%; as previously reported ref 13, 14, 15, 16; read-out: BIC50 S. Typhimurium; cited from earlier work
human T-lymphocyte (CEM) = assay: Cytostatic activity against tumor cell lines (cell number by Coulter counter); format: cell-based; conditions: 72 h, concentration inhibiting cell proliferation by 50%, three days incubation, mean of three repeats
Method: (§3) The IC50 was defined as the compound concentration required to inhibit cell proliferation by 50%. The therapeutic index (TI) was calculated as the ratio of the compound concentration producing toxicity (IC50) to the concentration needed to exert the desired ‘therapeutic’ effect on biofilms of Salmonella and Pseudomonas, indicated by the BIC50 (dose needed to prevent biofilm formation by 50%). The higher the therapeutic index, the broader the safety window of the compound.
(§4) Murine leukemia (L1210), human T-lymphocyte (CEM) and human cervix carcinoma (HeLa) were suspended at 300,000–500,000 cells/mL of culture medium, and 100 µL of a cell suspension was added to 100 µL of an appropriate dilution of the test compounds in 200 µL-wells of 96-well microtiter plates. After incubation at 37 °C for two (L1210), three (CEM) or four (HeLa) days, the cell number was determined using a Coulter counter. The IC50 was defined as the compound concentration required to inhibit cell proliferation by 50%.

murine leukemia (L1210) = assay: as above; format: cell-based; conditions: Mus musculus, L1210, 48 h; concentration inhibiting cell proliferation by 50%; two days incubation; mean of three repeats
Method: as §3, §4

[3] = tested on: human cervix carcinoma (HeLa); assay: as above; format: cell-based; conditions: 96 h, concentration inhibiting cell proliferation by 50%, four days incubation, mean of three repeats
Method: as §3, §4

C. elegans = format: in vivo, Caenorhabditis elegans; conditions: for C. elegans % survival at 25 µM: after 7 days relative to viability at day 0, mean of at least two repeats
Method: Eggs of a double mutant (glp-4Dsek-1D) of C. elegans were grown on NGM/OP50 agar plates (NGM agar plates on the surface inoculated with 100 µL of an overnight culture of OP50 Escherichia coli and stored at 4 °C until use) at 25 °C until all nematodes had reached the L4 stage. Worms were collected and washed with M9 buffer (3 g/L KH2PO4, 6 g/L Na2HPO4, 5 g/L NaCl, 1 mM MgSO4). For toxicity testing, 40 to 50 worms were suspended in 250 μL M9 (supplemented with 10 µg/mL cholesterol, 75 µg/mL ampicillin and 100 µg/mL kanamycin) buffer in each well of 24-well microtiter plates, in the presence or absence (0.5% DMSO control) of 25, 100 or 200 µM of the test compounds and grown for 7 days at 25 °C. The percentage survival of the worms in the presence or absence of anti-biofilm compounds was calculated after 7 days relative to their viability at day 0.

[4] = tested on: human bone marrow-derived mesenchymal stem cells (MSC); assay: Metabolic activity of bone cells, MTT staining; format: cell-based; conditions: 12.5 µM, 6 days exposure, MTT staining (results not shown)
Method: (§5) The cytotoxicity of the compounds was measured on cell cultures of two cell types represented in bone tissue, namely human osteoblasts (OB) and human bone marrow-derived mesenchymal stem cells (MSC). These tests were conducted according to ISO 10993-5 cytotoxicity standard. The cells were seeded in a 96-well plate at a density of 5000 cells/cm^2 in cell culture media (Advanced DMEM, 10% FBS, 1× GlutaMAX, 0.05 mg/mL gentamicin) and allowed to attach overnight. The next day the test compounds (12.5 μM) and controls were added to the cells (negative controls were cell culture medium and cell culture medium with 0.5% DMSO background, positive control was 0.05% phenol to show a cytotoxic effect) and incubated for 2h, 48h and 6 days and at each time-point the numbers of viable and dead cells were determined by trypan blue staining, and the metabolic activity was determined with MTT staining.
(§6) MTT: the medium was removed from the wells and 100 μL of medium, supplemented with 10% serum and 0.5 mg/mL MTT was added to the cells. The cells were incubated overnight at 37 °C and 5% CO2. The next day the medium with MTT was removed and 100 μL acidic isopropanol was added. The cells were then centrifuged at 2300 g and 50 μL of the supernatant was transferred to a new 96-well plate. The absorbance was measured at 570 nm and the background was measured at 660 nm. Four wells per condition were examined.

human osteoblasts (OB) [5] = assay: Metabolic activity of bone cells, MTT staining; format: cell-based; conditions: 12.5 µM, 6 days exposure, MTT staining (results not shown)
Method: as §5, §6

[6] = tested on: mesenchymal stem cells (MSC); assay: Calcium assay for osteogenic differentiation potential; format: cell-based, human; conditions: 12.5 µM, 5 weeks (Figure 6) or 3 weeks (methods) of exposure
Method: (§7) MSC and OB were cultured in osteogenic medium for 3 and 5 weeks, respectively. The experimental groups included a positive solvent control (osteogenic medium with 0.5% DMSO background), a negative control (medium without osteogenic supplements) and treated samples (osteogenic medium, 0.5% DMSO background and 12.5 µM of test compound). Cell cultures were extracted by 5% trichloroacetic acid (500 μL per sample). O-Cresolphtalein complex was added (Calcium CPC LiquiColor Test®; Stanbio Laboratory, Boerne, TX, USA), and the calcium content was determined spectrophotometrically at 550 nm.
(§8) To determine the DNA content, cells were washed with PBS, and 200 μL of digestion buffer (10 mM Tris, 1 mM EDTA, 0.1% Triton X-100, 0.1 mg/mL proteinase K) was added. Samples were incubated in digestion buffer overnight at 56 °C. The supernatants were drawn off and PicoGreen® dye (Molecular Probes, Eugene, OR, USA) was added to the samples in 1:1 ratio and read in a fluorescent plate reader (excitation 485 nm and emission 528 nm). DNA values were used to normalize the calcium content. Four wells per condition were examined, and two samples from each well were taken for each assay.

osteoblasts (OB) = assay: as above; format: cell-based, human; conditions: 12.5 µM, 3 weeks (Figure 6) or 5 weeks (methods) of exposure
Method: as §7, §8

[7] = tested on: HMO2, HepG2, HeLa and mouse lymphoma cells; parameters: method as in PMID 12193030, PMID 15165143, PMID 17822294; conditions: including HMO2, HepG2, HeLa and mouse lymphoma cells; cited from earlier work
[8] = tested on: GH4C1 rat pituitary and N2A mouse neuroblastoma cell lines; parameters: method as in PMID 18493660; conditions: compared with parent molecule bromoageliferin; cited from earlier work
[9] = tested on: epidermal growth factor-stimulated DNA synthesis in squamous cell tumors; conditions: compared with naamidine A; cited from earlier work
[10] = 12.5 µM, 48h exposure, trypan blue

## Cn1c(C(=O)NCCCc2c[nH]c(N)n2)cc(Br)c1Br [2p]
HaCaT keratinocyte cells
  effect on HaCaT keratinocyte cells: differential effect
Caenorhabditis elegans
  toxicity against Caenorhabditis elegans: lack toxicity

## CCCCCCCCCCCCCNC(=O)CCCc1c[nH]c(N)n1 [2q]
HaCaT keratinocyte cells
  effect on HaCaT keratinocyte cells: differential effect
Caenorhabditis elegans
  toxicity against Caenorhabditis elegans: lack toxicity

## Brc1ccc(-c2cnc(NCCCn3cc(C4CC4)nn3)[nH]2)cc1 [compound 40]
[1]; 12.5 µM, trypan blue
  effect on proliferation and viability: do not or only slightly reduce
[1]
  survival of cells after 4 weeks of exposure: allow survival
Human osteoblasts (OB) [2]; 12.5 µM, trypan blue
  effect on proliferation and viability: do not or only slightly reduce
Human osteoblasts (OB) [2]
  survival of cells after 4 weeks of exposure: allow survival
P. aeruginosa biofilm
  IC50: 72 µM and 71.6 µM
S. Typhimurium biofilm
  IC50: 2 µM
Human T-lymphocyte (CEM)
  IC50: 33.6 µM
Murine leukemia (L1210)
  IC50: 43.9 µM
[3]
  IC50: 67.1 µM
C. elegans
  C. elegans % survival at 25 µM: 82.6%
C. elegans; 7 days of exposure
  effect on C. elegans survival at 100 µM: none of the compounds significantly affect
C. elegans; 200 µM, 7 days of exposure
  effect on C. elegans survival at 200 µM: do not significantly affect survival
[4]
  effect on metabolic activity: slightly enhance
Human osteoblasts (OB) [5]
  effect on metabolic activity: slightly enhance
[6]
  calcium deposition compared to the solvent control (osteogenic differentiation potential): none of the compounds does negatively affect
Osteoblasts (OB)
  calcium deposition compared to the solvent control (osteogenic differentiation potential): none of the compounds does negatively affect

## C/C(=C\c1ccccc1)Cn1cc(CCCCCc2c[nH]c(N)n2)nn1 [2r]
HaCaT keratinocyte cells
  effect on HaCaT keratinocyte cells: differential effect
Caenorhabditis elegans
  toxicity against Caenorhabditis elegans: lack toxicity

## COc1ccc(Cc2[nH]/c(=N\C3=NC(=O)N(C)C3=O)n(C)c2Cc2cc(OC)c(O)c(OC)c2)cc1 [2k, naamidine H]
[7]
  cytotoxicity to a variety of cell lines: cytotoxic

## NC[C@H]1Cc2nc(N)[nH]c2C[C@@H]1CN [2n]
[8]
  cytotoxicity in GH4C1 rat pituitary and N2A mouse neuroblastoma cell lines: lack the cytotoxicity

## CC(C)CNc1ncc(-c2ccc(Cl)cc2)[nH]1 [compound 22]
[1]; 12.5 µM, trypan blue
  effect on proliferation and viability: do not or only slightly reduce
[1]
  survival of cells after 4 weeks of exposure: allow survival
Human osteoblasts (OB) [2]; 12.5 µM, trypan blue
  effect on proliferation and viability: do not or only slightly reduce
Human osteoblasts (OB) [2]
  survival of cells after 4 weeks of exposure: allow survival
P. aeruginosa biofilm
  IC50: 0.9 µM
S. Typhimurium biofilm
  IC50: 2 µM
Human T-lymphocyte (CEM)
  IC50: 297 µM
Murine leukemia (L1210)
  IC50: 336 µM
[3]
  IC50: 172 µM
C. elegans
  C. elegans % survival at 25 µM: 97.6%
C. elegans; 7 days of exposure
  effect on C. elegans survival at 100 µM: none of the compounds significantly affect
C. elegans; 200 µM, 7 days of exposure
  effect on C. elegans survival at 200 µM: do not significantly affect survival
[4]
  effect on metabolic activity: slightly enhance
Human osteoblasts (OB) [5]
  effect on metabolic activity: slightly enhance
[6]
  calcium deposition compared to the solvent control (osteogenic differentiation potential): none of the compounds does negatively affect; also recorded: significantly (p < 0.05) induces
Osteoblasts (OB)
  calcium deposition compared to the solvent control (osteogenic differentiation potential): none of the compounds does negatively affect; also recorded: significantly (p < 0.05) induces

## COc1ccc(Cc2[nH]c(=N)n(C)c2Cc2ccc(O)cc2)cc1 [2m, naamine A]
[9]
  ability to inhibit EGFR stimulated DNA synthesis: markedly decreased ability to inhibit

## CCCCNc1ncc(-c2ccc(Br)cc2)[nH]1 [compound 25]
[1]; 12.5 µM, trypan blue
  effect on proliferation and viability: do not or only slightly reduce
[1]
  survival of cells after 4 weeks of exposure: allow survival
Human osteoblasts (OB) [2]; 12.5 µM, trypan blue
  effect on proliferation and viability: do not or only slightly reduce
Human osteoblasts (OB) [2]
  survival of cells after 4 weeks of exposure: allow survival
P. aeruginosa biofilm
  IC50: 9.8 µM
S. Typhimurium biofilm
  IC50: 7.1 µM
Human T-lymphocyte (CEM)
  IC50: 493 µM
Murine leukemia (L1210)
  IC50: 126 µM
[3]
  IC50: 50.7 µM
C. elegans
  C. elegans % survival at 25 µM: 102.4%
C. elegans; 7 days of exposure
  effect on C. elegans survival at 100 µM: none of the compounds significantly affect
C. elegans; 200 µM, 7 days of exposure
  effect on C. elegans survival at 200 µM: do not significantly affect survival
[4]
  effect on metabolic activity: slightly enhance
Human osteoblasts (OB) [5]
  effect on metabolic activity: slightly enhance
[6]
  calcium deposition compared to the solvent control (osteogenic differentiation potential): none of the compounds does negatively affect; also recorded: significantly induces
Osteoblasts (OB)
  calcium deposition compared to the solvent control (osteogenic differentiation potential): none of the compounds does negatively affect

## CCCCCCCCn1c(-c2ccc(Cl)cc2)cnc1N [compound 7]
[1]; [10]
  reduction of proliferation as compared to the solvent control: > 70%
  reduction of viability as compared to the solvent control: > 70%
Human osteoblasts (OB) [2]; [10]
  reduction of proliferation as compared to the solvent control: > 70%
  reduction of viability as compared to the solvent control: > 70%
P. aeruginosa biofilm
  IC50: 4 µM
S. Typhimurium biofilm
  IC50: 5.9 µM
Human T-lymphocyte (CEM)
  IC50: 357 µM
Murine leukemia (L1210)
  IC50: 3.9 µM
[3]
  IC50: 4.5 µM
C. elegans
  C. elegans % survival at 25 µM: 86.6%
C. elegans; 7 days of exposure
  effect on C. elegans survival at 100 µM: none of the compounds significantly affect
C. elegans; 200 µM, 7 days of exposure
  inhibition of C. elegans survival at 200 µM: more than 50%
[4]
  reduction of metabolic activity as compared to the untreated controls: > 80%
Human osteoblasts (OB) [5]
  reduction of metabolic activity as compared to the untreated controls: > 80%

## COc1ccc(Cc2nc(N)n(C)c2Cc2cc(O)c(OC)c(O)c2)cc1 [2f, naamine E]
[7]
  cytotoxicity to a variety of cell lines: cytotoxic

## C/N=C1N=C(/N=c2\[nH]c(Cc3ccc(OC)cc3)c(Cc3cc(OC)c(O)c(OC)c3)n2C)C(=O)N\1C [2l, naamidine I]
[7]
  cytotoxicity to a variety of cell lines: cytotoxic
